Source: PubChem BioAssay AID330 (DTP/NCI, 2004)
Where “and” joins values, the source holds several entries; their conditions need not be identical. Equal values may be shown once. Inconclusive results and toxic doses are left out.

Test system: P388 leukemia ip, CD2F1 mice, survival T/C
Assay: NCI In Vivo Anticancer Drug Screen. Data for tumor model P388 Leukemia (intraperitoneal) in CD2F1 (CDF1) mice
Conditions: endpoint: median survival time, higher = longer survival
In short: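 Mice carrying the transplanted tumor received test compound or vehicle. Survival was recorded in each group, and the value is the treated-group measurement divided by that of the vehicle-treated control group.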

[1] = dose: 50.0 mg/kg/injection, schedule: Q01DX005 (ip), vehicle: saline with Tween-80
[2] = dose: 100.0 mg/kg/injection, schedule: Q01DX005 (ip), vehicle: saline with Tween-80
[3] = dose: 200.0 mg/kg/injection, schedule: Q01DX005 (ip), vehicle: saline with Tween-80
[4] = dose: 50.0 mg/kg/injection, schedule: Q01DX005 (ip), vehicle: Klucel (hydroxypropylcellulose) (HPC)
[5] = dose: 100.0 mg/kg/injection, schedule: Q01DX005 (ip), vehicle: Klucel (hydroxypropylcellulose) (HPC)
[6] = dose: 200.0 mg/kg/injection, schedule: Q01DX005 (ip), vehicle: Klucel (hydroxypropylcellulose) (HPC)

CC1=C(CCC(=O)O)c2cc3nc(cc4[nH]c(cc4C)cc4[nH]c(cc1n2)cc4C)C(C)(C)C3CCC(=O)O (stereo not given)
T/C (dose: 3.0 mg/kg/injection, schedule: Q01DX009 (ip), vehicle: Klucel (hydroxypropylcellulose) (HPC)): 97 % of control
T/C (dose: 6.0 mg/kg/injection, schedule: Q01DX009 (ip), vehicle: Klucel (hydroxypropylcellulose) (HPC)): 92 % of control
T/C (dose: 12.0 mg/kg/injection, schedule: Q01DX009 (ip), vehicle: Klucel (hydroxypropylcellulose) (HPC)): 90 % of control
T/C (dose: 24.0 mg/kg/injection, schedule: Q01DX009 (ip), vehicle: Klucel (hydroxypropylcellulose) (HPC)): 87 % of control

Cc1ccc2c(c1)C1(C)OC(C=CC1(C)O)O2 (stereo not given)
T/C [1]: 101 % of control
T/C [2]: 106 % of control
T/C [3]: 106 % of control

O=c1[nH]c(CNCCO)nc2sc3c(c12)CCCC3
T/C (dose: 50.0 mg/kg/injection, schedule: Q01DX009 (ip), vehicle: saline with Tween-80): 100 % of control
T/C (dose: 100.0 mg/kg/injection, schedule: Q01DX009 (ip), vehicle: saline with Tween-80): 105 % of control
T/C (dose: 200.0 mg/kg/injection, schedule: Q01DX009 (ip), vehicle: saline with Tween-80): 96 % of control

COc1cc2c(cc1C1COc3cc4occc4cc3C1=O)OCO2 (stereo not given)
T/C (dose: 12.5 mg/kg/injection, schedule: Q01DX005 (ip), vehicle: Klucel (hydroxypropylcellulose) (HPC)): 97 % of control
T/C (dose: 25.0 mg/kg/injection, schedule: Q01DX005 (ip), vehicle: Klucel (hydroxypropylcellulose) (HPC)): 95 % of control
T/C [4]: 92 % of control
T/C [5]: 95 % of control
T/C [6]: 95 % of control

Cc1cc(C)c(N)c(Br)c1
T/C (dose: 6.25 mg/kg/injection, schedule: Q01DX009 (ip), vehicle: saline with Tween-80): 118 % of control
T/C (dose: 12.5 mg/kg/injection, schedule: Q01DX009 (ip), vehicle: saline with Tween-80): 113 % of control
T/C (dose: 12.5 mg/kg/injection, schedule: Q04DX003 (ip), vehicle: saline with Tween-80): 100 % of control
T/C (dose: 25.0 mg/kg/injection, schedule: Q01DX009 (ip), vehicle: saline with Tween-80): 100 % of control
T/C (dose: 25.0 mg/kg/injection, schedule: Q04DX003 (ip), vehicle: other): 120 % of control
T/C (dose: 25.0 mg/kg/injection, schedule: Q04DX003 (ip), vehicle: saline with Tween-80): 100 % of control
T/C (dose: 50.0 mg/kg/injection, schedule: Q04DX003 (ip), vehicle: other): 120 % of control
T/C (dose: 50.0 mg/kg/injection, schedule: Q04DX003 (ip), vehicle: saline with Tween-80): 95 % of control

COc1ccc2c(CP(=O)(O)O)cc(=O)oc2c1
T/C (dose: 100.0 mg/kg/injection, schedule: Q01DX001 (ip), vehicle: suspension in saline): 99 % of control
T/C (dose: 200.0 mg/kg/injection, schedule: Q01DX001 (ip), vehicle: suspension in saline): 100 % of control
T/C (dose: 400.0 mg/kg/injection, schedule: Q01DX001 (ip), vehicle: suspension in saline): 87 % of control

CCOc1ccc(S(=O)(=O)c2ccc(C)cc2)c2c1no[n+]2[O-]
T/C (dose: 3.75 mg/kg/injection, schedule: Q01DX009 (ip), vehicle: saline with Tween-80): 101 % of control
T/C (dose: 7.5 mg/kg/injection, schedule: Q01DX009 (ip), vehicle: saline with Tween-80): 99 % of control and 95 % of control
T/C (dose: 15.0 mg/kg/injection, schedule: Q01DX009 (ip), vehicle: saline with Tween-80): 107 % of control

COc1ccc(/C=C/C(=O)C(C)(CN(C)C)CN(C)C)cc1
T/C (dose: 30.0 mg/kg/injection, schedule: Q01DX005 (ip), vehicle: saline): 123 % of control
T/C (dose: 120.0 mg/kg/injection, schedule: Q01DX005 (ip), vehicle: saline): 121 % of control

CCCOC1C=C(C)C(=O)O1 (stereo not given)
T/C (dose: 40.5 mg/kg/injection, schedule: Q01DX005 (ip), vehicle: saline with Tween-80): 103 % of control
T/C (dose: 81.0 mg/kg/injection, schedule: Q01DX005 (ip), vehicle: saline with Tween-80): 104 % of control
T/C (dose: 162.0 mg/kg/injection, schedule: Q01DX005 (ip), vehicle: saline with Tween-80): 112 % of control

Cc1cc2c(cc1C)C(=O)C(Br)=C(N)C2=O
T/C (dose: 25.0 mg/kg/injection, schedule: Q01DX005 (ip), vehicle: saline with Tween-80): 94 % of control
T/C [1]: 100 % of control and 91 % of control
T/C [2]: 87 % of control
T/C [3]: 92 % of control

Cn1c2ccc(F)cc2c(=O)c2c(O)cc3c(c21)C=CC(C)(C)O3
T/C [4]: 100 % of control
T/C [5]: 102 % of control
T/C [6]: 94 % of control

Cc1ccc(C(=O)Cc2nc(C#N)c(C#N)nc2CC(=O)c2ccc(C)cc2)cc1
T/C (dose: 60.0 mg/kg/injection, schedule: Q01DX005 (ip), vehicle: saline with Tween-80): 112 % of control
T/C (dose: 120.0 mg/kg/injection, schedule: Q01DX005 (ip), vehicle: saline with Tween-80): 120 % of control

C/C(=C\c1cc2cc(C(=N)N)ccc2o1)c1cc2cc(C(=N)N)ccc2o1
T/C (dose: 400.0 mg/kg/injection, schedule: Q04DX002 (ip), vehicle: saline): 159 % of control

COc1ccc(CCN2C(=O)C(=O)N(C3CCCCC3)C2=O)cc1OC
T/C (dose: 50.0 mg/kg/injection, schedule: Q01DX009 (ip), vehicle: Klucel (hydroxypropylcellulose) (HPC)): 93 % of control
T/C (dose: 100.0 mg/kg/injection, schedule: Q01DX009 (ip), vehicle: Klucel (hydroxypropylcellulose) (HPC)): 95 % of control
T/C (dose: 200.0 mg/kg/injection, schedule: Q01DX009 (ip), vehicle: Klucel (hydroxypropylcellulose) (HPC)): 100 % of control

COc1cc2nnn(-c3ccncc3)c2cc1OC
T/C (dose: 25.0 mg/kg/injection, schedule: Q01DX009 (ip), vehicle: other): 100 % of control
T/C (dose: 50.0 mg/kg/injection, schedule: Q01DX009 (ip), vehicle: other): 93 % of control
T/C (dose: 100.0 mg/kg/injection, schedule: Q01DX009 (ip), vehicle: other): 99 % of control
T/C (dose: 200.0 mg/kg/injection, schedule: Q01DX009 (ip), vehicle: other): 96 % of control
T/C (dose: 400.0 mg/kg/injection, schedule: Q01DX009 (ip), vehicle: other): 96 % of control

CC(CCCSC(=N)N)SC(=N)N (stereo not given)
T/C (dose: 12.5 mg/kg/injection, schedule: Q01DX009 (ip), vehicle: saline): 105 % of control
T/C (dose: 25.0 mg/kg/injection, schedule: Q01DX009 (ip), vehicle: saline): 98 % of control
T/C (dose: 50.0 mg/kg/injection, schedule: Q01DX009 (ip), vehicle: saline): 104 % of control

[Br][Hg][CH]1CCC2CCCC1O2 (stereo not given)
T/C (dose: 12.5 mg/kg/injection, schedule: Q01DX009 (ip), vehicle: Klucel (hydroxypropylcellulose) (HPC)): 89 % of control
T/C (dose: 25.0 mg/kg/injection, schedule: Q01DX009 (ip), vehicle: Klucel (hydroxypropylcellulose) (HPC)): 90 % of control

CCC1S(=O)(=O)OCCOS1(=O)=O
T/C (dose: 7.5 mg/kg/injection, schedule: Q01DX005 (ip), vehicle: Klucel (hydroxypropylcellulose) (HPC)): 106 % of control
T/C (dose: 15.0 mg/kg/injection, schedule: Q01DX005 (ip), vehicle: Klucel (hydroxypropylcellulose) (HPC)): 106 % of control and 107 % of control and 116 % of control
T/C (dose: 30.0 mg/kg/injection, schedule: Q01DX005 (ip), vehicle: Klucel (hydroxypropylcellulose) (HPC)): 109 % of control and 112 % of control and 120 % of control

COC(=O)C(C(=O)OC)=C(NS(=O)(=O)c1ccc(C)cc1)SC
T/C (dose: 12.5 mg/kg/injection, schedule: Q04DX002 (ip), vehicle: saline with Tween-80): 100 % of control
T/C (dose: 25.0 mg/kg/injection, schedule: Q04DX002 (ip), vehicle: saline with Tween-80): 100 % of control
T/C (dose: 50.0 mg/kg/injection, schedule: Q04DX002 (ip), vehicle: saline with Tween-80): 109 % of control

COc1cccc2c1C(=O)c1c(O)c3c(c(O)c1C2=O)C[C@@](O)(C(C)=O)C[C@@H]3OC1CC(N(Cc2ccccc2)Cc2ccccc2)C(O)C(C)O1 (stereo not given in full)
T/C (dose: 0.78 mg/kg/injection, schedule: Q01DX009 (ip), vehicle: water): 105 % of control
T/C (dose: 1.56 mg/kg/injection, schedule: Q01DX009 (ip), vehicle: water): 114 % of control
T/C (dose: 6.25 mg/kg/injection, schedule: Q01DX009 (ip), vehicle: water): 156 % of control
T/C (dose: 12.5 mg/kg/injection, schedule: Q01DX009 (ip), vehicle: water): 189 % of control and 221 % of control
T/C (dose: 13.0 mg/kg/injection, schedule: Q04DX003 (ip), vehicle: water): 158 % of control
T/C (dose: 21.6 mg/kg/injection, schedule: Q04DX003 (ip), vehicle: water): 180 % of control
T/C (dose: 25.0 mg/kg/injection, schedule: Q01DX009 (ip), vehicle: water): 247 % of control and 271 % of control
T/C (dose: 50.0 mg/kg/injection, schedule: Q01DX009 (ip), vehicle: water): 92 % of control
T/C (dose: 60.0 mg/kg/injection, schedule: Q04DX003 (ip), vehicle: water): 94 % of control

COC(=O)c1nnc(C(=O)OC)c2c1c1ccccc1n2C(C)=O
T/C (dose: 100.0 mg/kg/injection, schedule: Q04DX002 (ip), vehicle: saline with Tween-80): 99 % of control
T/C (dose: 200.0 mg/kg/injection, schedule: Q04DX002 (ip), vehicle: saline with Tween-80): 99 % of control
T/C (dose: 400.0 mg/kg/injection, schedule: Q04DX002 (ip), vehicle: saline with Tween-80): 99 % of control
